The subject of series [1] is H929-1051 cells. The experiment in a line: Cell apoptosis assay (Caspase-3 live cell imaging). The class given is cell-based, human. The source says: FIG. 1A and FIG. 1B. (FIG. 1A) Change in apoptosis induction, as measured by area under the curve of Caspase 3 fold induction (aka apoptosis index) over time in lenalidomide resistant H929-1051 cells. Abscissa: log nM (compound), ordinate: apoptosis index. The lines of best fit are a 3-parameter logistic equation calculated in GraphPad Prism. (FIG. 1B) The area under the curve of the concentration-response curves for Compound 1 and Compound A in H929-1051 cells were used to compare the compounds' ability to induce apoptosis after a 6 h exposure and then dilution resulting in about a 20-fold reduction of compound concentration.
Cell Apoptosis Assays: The ability of the compounds to induce apoptosis was assessed in selected MM cell lines at the time points and compound concentrations indicated. As a marker of apoptosis, the level of Caspase-3 activity was measured in MM cells using live cell imaging. To image suspension cells, 96-well plates were coated with fibronectin so cells would adhere and lie flat on the bottom of the plate. Cells were added to 96-well plates using a Multidrop Combi Reagent Dispenser (Thermo Scientific, Waltham, MA) the night before compound addition. […] Cleavage of the Caspase-3 enzyme substrate and cellular confluence in each well was detected via imaging at 10× on the IncuCyte ZOOM System every 4-6 h for 5 days. […]
Compound 1 Induced Apoptosis in Multiple Myeloma Cell Lines. […] To determine the ability of compounds to induce apoptosis and to characterize kinetically the onset of this process, Caspase-3 induction was measured over time in lenalidomide-resistant, H929-1051 cells (FIG. 1A and FIG. 1B). H929-1051 cells were incubated with the compounds at concentrations of 1 nM, 10 nM, 100 nM and 1000 nM and apoptosis was assessed over time. […] Next, the area under the curve (AUC) was calculated for each concentration and used to generate the concentration-response curves for each compound. This provided quantitative evidence of the ability of Compound 1 to induce apoptosis in H929-1051.

The subject of series [2] is H929-1051. The experiment in a line: Coculture of compound-treated anti-CD3-activated PBMCs with untreated myeloma cells. The class given is cell-based. The settings on record: Homo sapiens, untreated H929-1051, T:E 1:5, 24 h, read-out: IC50 tumor cell lysis by compound-treated PBMCs. Here is the method: (§1) Coculture Assays with Compound-treated Human Peripheral Blood Mononuclear Cells and Untreated Myeloma Cell Lines. Methods: Cell Culture. All myeloma cell lines were kept in log phase, and cell density and viability were monitored by trypan blue exclusion using the Vi-CELL XR cell viability analyzer.
(§2) PBMC Treatment Assay Procedure. Ninety-six-well dishes were pre-coated with anti-CD3 antibody (OKT3, 3 μg/mL) and incubated at 4° C. overnight before the start of the experiment. Frozen PBMC donors, were thawed at 37° C. for 2 minutes in RPMI medium with 10% FBS and cell counts and viability were measured on the Vi-CELL® (Beckman Coulter). Peripheral blood mononuclear cells were washed and diluted to 1×10^6 cells/mL and dispensed to the compound-treated plates in a total volume of 200 μL. Cells were incubated with compounds for 2 h before being transferred onto anti-CD3-coated plates and incubated for an additional 72 h at 37° C. After 72 h, the PBMCs were centrifuged, and cells were washed twice in RPMI medium+10% FBS. […] Peripheral blood mononuclear cells were counted and added to the MM cells at a target:effector (T:E) ratio of 1:5. After 24 h co-culture, specific target cell lysis by PBMCs was measured using Annexin V-AF647 and 7-AAD according to manufacturer's instructions and samples were run on the Attune NxT Cytometer (Thermo Fisher).

The test system of series [3] is NCI-H929. Described as above. The class given is cell-based. The settings on record: Homo sapiens, T:E 1:5, 24 h, read-out: IC50 tumor cell lysis by compound-treated PBMCs. Here is the method:
as §1, §2

The subject of series [4] is multiple myeloma and plasma cell leukemia cell lines (OPM2.P10, RPMI.8226, L363, JJN-3). Description: Combination with proteasome inhibitor pulse (flow cytometry, 72 h). The class given is cell-based, human. As to conditions: then Compound 2 72 h.
Description: Twenty four hours prior to treatment with a proteasome inhibitor and test compound, an appropriate number of cells were split to a concentration of 0.2×10^6/mL in fresh media to allow for exponential growth. On the day of treatment, compounds were freshly solvated in DMSO. Proteasome inhibitors bortezomib or carfilzomib were diluted and added to pre-warmed culture media at the final working concentrations of 150 nM or 300 nM for bortezomib and 300 nM or 550 nM for carfilzomib. Proteasome inhibitor concentrations were determined based upon clinical Cmax concentrations as well as previous studies in each cell line which determined the duration and concentration of PI required to inhibit a specific amount of β5 proteasome activity. Cells were counted and an appropriate number were placed into media containing proteasome inhibitor and thoroughly mixed. After incubation for 1 h at 37° C., 5% CO2, cells were washed two times with 40 mL of complete media to remove the proteasome inhibitor. […] Plated cells were cultured at 37° C., 5% C02, for the remainder of the experiment, up to 72 h. Every 24 h, proteasome inhibition was monitored by the Cell-Based Proteasome-Glo Assay. Proliferation and apoptosis were measured at 72 h by flow cytometry. Cells were stained with APC Annexin-V and 7-AAD to enumerate the number of viable cells remaining in culture.
An in vitro cell assay was established in order to mimic the clinical pharmacokinetics (PK) and pharmacodynamics (PD) of exposure to proteasome inhibitors bortezomib and carfilzomib.
In series [5] the test system is lenalidomide-resistant NCI-H929 (H929-1051) multiple myeloma/plasmacytoma tumors. The experiment in a line: H929-1051 xenograft, Compound 2 alone and with dexamethasone. The class given is in vivo, mouse.
For series [6] the test system is unchanged. The experiment in a line: H929-1051 xenograft, Compound 2 alone and with bortezomib. The class given is in vivo, mouse.
In series [7] the test system is unstimulated primary human PBMCs. Description: Anti-proliferative counter-screen (CellTiter-Glo, 72 h). The class given is cell-based. The settings on record: PBMC.
For series [8], the target named is T1, CYP2C8 (Homo sapiens, UniProt P10632).
T1 construct: from tissue; host or cells: pooled human liver microsomes
Description: CYP inhibition in pooled human liver microsomes. The settings on record: up to 30 μM. The class given is in vitro ADME. Here is the method: Methods. […] In addition, the compounds were evaluated for their potential to act as a time-dependent inhibitors at the same concentrations mentioned above. […] In addition to appropriate vehicle controls, known direct inhibitors and time-dependent inhibitors of CYP isoforms were included as positive controls. Following the incubation, concentrations of probe substrate metabolites were quantified using established LC/MS/MS methods. The extent of inhibition was expressed as the percentage of control activity.

“Also recorded” adds a separate entry of the source. Bounds are passed on as bounds.

T1 sequence (P10632 whole entry): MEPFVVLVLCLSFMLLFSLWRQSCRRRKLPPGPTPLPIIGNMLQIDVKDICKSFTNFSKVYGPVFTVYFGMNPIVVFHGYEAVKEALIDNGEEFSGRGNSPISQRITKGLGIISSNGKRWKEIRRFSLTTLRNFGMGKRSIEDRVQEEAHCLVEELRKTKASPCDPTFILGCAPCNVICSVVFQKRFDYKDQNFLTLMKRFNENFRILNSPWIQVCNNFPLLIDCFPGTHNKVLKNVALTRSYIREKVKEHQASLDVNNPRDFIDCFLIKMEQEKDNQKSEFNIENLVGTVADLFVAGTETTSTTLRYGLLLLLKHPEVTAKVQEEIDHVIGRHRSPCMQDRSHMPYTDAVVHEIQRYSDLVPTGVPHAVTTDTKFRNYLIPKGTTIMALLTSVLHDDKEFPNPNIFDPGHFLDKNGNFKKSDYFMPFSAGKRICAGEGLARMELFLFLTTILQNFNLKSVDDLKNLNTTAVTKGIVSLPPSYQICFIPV

As to `N#Cc1ccc(N2CCN(Cc3ccc(COc4cccc5c4CN(C4CCC(=O)NC4=O)C5=O)cc3)CC2)c(F)c1` (racemic) [Compound 1, 4-(4-(4-(((2-(2,6-dioxopiperidin-3-yl)-1-oxoisoindolin-4-yl)oxy)methyl)benzyl)piperazin-1-yl)-3-fluorobenzonitrile], in series [1] (1-1000 nM), the “time of near maximal apoptosis induction” value was approximately 72 h. For the same compound, in series [1] (1-1000 nM, all concentrations), the “time at which apoptosis induction begins” value is “around 48 h”. For the same compound, the “apoptotic induction (total AUC) compared to Compound A” value in series [1] (6 h exposure then about 20-fold dilution, relative to Compound A) is listed as 126%.
As to `N#Cc1ccc(N2CCN(Cc3ccc(COc4cccc5c4CN([C@H]4CCC(=O)NC4=O)C5=O)cc3)CC2)c(F)c1` [Compound 2, (S)-4-(4-(4-(((2-(2,6-dioxopiperidin-3-yl)-1-oxoisoindolin-4-yl)oxy)methyl)benzyl)piperazin-1-yl)-3-fluorobenzonitrile], the concentration for half-maximal inhibition (IC50) in series [2] was 0.2 nM; in series [3] it was 5 nM; in series [7] it was more than 10000 nM. The “effect in combination with bortezomib” value in series [4] (1 h bortezomib pulse, OPM2.P10, RPMI.8226, JJN-3) is “demonstrated a combination effect”. Moreover, in series [4] (1 h carfilzomib pulse, 4 cell lines), the “effect in combination with carfilzomib” value was “combination effects with Compound 2 were demonstrated in all 4 cell lines”. Besides, the “combination antitumor activity (fractional product method)” value in series [5] (Compound 2 0.1 mg/kg and dexamethasone 0.5 mg/kg) is on record as “synergistic”; in series [6] (Compound 2 1 mg/kg with second agent 1 mg/kg), “synergistic”. The “tumor volume reduction (TVR)” value is listed as 84% in series [5] (Compound 2 0.1 mg/kg in combination with dexamethasone 0.5 mg/kg) and 98% in series [6] (Compound 2 1 mg/kg qd×3 in combination with bortezomib 1 mg/kg single dose, day 50). Further, the “tumor growth inhibition / tumor volume reduction (TVR)” value in series [5] (single agent Compound 2 0.1 mg/kg oral once daily) was 34%; in series [6] (single agent Compound 2 1 mg/kg qd×3 (days 31-33), day 50) it was 44%. In addition, the “animals that became tumor free and remained tumor free” value in series [6] (combination of Compound 2 and bortezomib, by day 53) was 7 out of 9. Besides, in series [6] (single agent, 1 mg/kg), the “day by which tumors reached approximately 2000 mm^3” value was found to be 58 days.
With `O=C1CC[C@H](N2Cc3c(OCc4ccc(CN5CCN(c6ccc(F)cc6F)CC5)cc4)cccc3C2=O)C(=O)N1` [Compound B], the “time-dependent inhibition of CYP2C8” value in series [8] (30 minute preincubation with or without NADPH) is reported as “little to no time-dependent inhibition; also recorded: not a time-dependent inhibitor”. In series [8] (human liver microsomes), the “direct inhibition of CYP2C8” value is reported as “up to 30%”.

For the origin of these results see patent publication US12029738B2, “Antiproliferative compounds and methods of use thereof” (Celgene Corporation, priority 2017, dated 2024).
